Assay results from patent US20160289663A1, “NOVEL CHIMERIC GENE ATF7IP-PDGFRB OF ACUTE LYMPHOBLASTIC LEUKEMIA” (priority 2013, published 2016).
Where a name gives a salt, the structure may show the parent alone.

Legend:
[1] = system: ATF7IP-PDGFRB-expressing Ba/F3 cells; assay: Cell proliferation (WST) assay, ATF7IP-PDGFRB Ba/F3 transfectants without conditioned medium; conditions: for effect on viable cell number: next-generation TKIs, FIG. 13
Procedure: (A) ATF7IP-PDGFRB-expressing Ba/F3 cells in the absence of WEHI-3-conditioned medium (CM) and Mock Ba/F3 cells in the presence of CM were each treated with or without either the PI3 kinase inhibitor LY294002 or the MEK inhibitor PD98059 at the indicated concentrations for 24 hours. Subsequently, the number of living cells was estimated for each type of the cells by WST assay in the same way as in FIG. 5B. The ratio of the OD value obtained from the inhibitor-treated cells relative to that obtained from the inhibitor-untreated cells was calculated and expressed as the means±SEM of triplicates. (B) ATF7IP-PDGFRB-expressing Ba/F3 cells were treated with PD98059 in the presence or absence of CM, and examined in the same way as in (A). […]
The data were analyzed by F-test. P values less than 0.05 were considered significant. All experiments were performed at least three times to calculate means and SEM values.

[2] = system: recurrent Ph-like acute lymphoblastic leukemia bearing ATF7IP/PDGFRB translocation; assay: Dasatinib monotherapy case report, MRD monitored by leukemia-specific genomic PCR; assay type: in vivo, human; conditions: one patient, 66 mg/m^2/day
Procedure: (A) The therapeutic response was evaluated by fluorescence in situ hybridization (FISH), RT-PCR (Kobayashi K., et al., Br J Haematol, 2014, 165, 836-841), and genomic PCR.
This example describes a monotherapy with the tyrosine kinase inhibitor (TKI) dasatinib in a patient with recurrent Ph-like acute lymphoblastic leukemia bearing ATF7IP/PDGFRB translocation.

[3] = system: myeloid malignancies bearing PDGFRB fusion genes; conditions: without secondary resistance; Cheah et al., Blood 2014; cited from earlier work
Mock Ba/F3 cells = assay: Cell proliferation (WST) assay, Mock Ba/F3 cells with WEHI-3-conditioned medium; assay type: cell-based, mouse; conditions: 24 hours, presence of conditioned medium, FIG. 10A
Procedure: The data were analyzed by F-test. P values less than 0.05 were considered significant.

[4] = system: phosphorylation of MAP kinases/AKT and PDGFRB in ATF7IP-PDGFRB-expressing Ba/F3 cells; assay: Immunoblot of MAP kinase/AKT/PDGFRB phosphorylation in ATF7IP-PDGFRB Ba/F3 cells; assay type: cell-based, mouse; conditions: immunoblotting, FIG. 11
Procedure: Cell lysates were prepared from the same sample preparations as in FIG. 10. Immunoblot analysis was performed in the same way as in FIG. 8. Abbreviations: None, without inhibitor; LY, with LY294002; and PD, with PD98059.
Immunoblot analysis was performed as in FIG. 8.
Immunoblot analysis was performed as described previously (Kiyokawa, et al., J Biol Chem, 1997, 272, 18656-18665; Tomita, et al., Leukemia Research, 2014, 38, 361-370) using the following antibodies: anti-phosphotyrosine (4G10; Merck Millipore), anti-PDGF receptor β (28E1), anti-phospho-PDGF receptor β Tyr751 (C63G6), anti-phospho-PDGF receptor β Tyr 771 (76D6), anti-phospho-PDGF receptor β Tyr1009 (42F9), anti-phospho-PDGF receptor β Tyr1021 (6F10), anti-phospho-p44/42 MAPK (ERK1/2, Tyr202/Tyr204), anti-phospho-p38 MAPK (Thr180/Tyr182), anti-phospho-JNK (Thr183/Tyr185, 81E11), anti-phospho-AKT (Ser473), anti-phospho-PLCγ1 (Tyr783), anti-Casitas B-lineage lymphoma binding (Cbl), anti-p38 MAPK antibody and anti-JNK antibody (Cell Signaling Technology); anti-ATF7IP (MCAF1) (Abcam, Cambridge, UK); anti-ERK, anti-PLCγ, (BD Biosciences, San Jose, Calif., USA); anti-β-actin (Sigma-Aldrich, St. Louis, Mo.); and horseradish peroxidase (HRP)-conjugated secondary antibody (Dako, Glostrup, Denmark). […]

[5] = Mus musculus, BaF3, 48 h, read-out: viable cell number

Structure (SMILES): Cc1cn(-c2cc(NC(=O)c3ccc(C)c(Nc4nccc(-c5cccnc5)n4)c3)cc(C(F)(F)F)c2)cn1 [nilotinib]
- effect on viable cell number [1]: effectively reduced the viable cell number

Structure (SMILES): Cc1nc(Nc2ncc(C(=O)Nc3c(C)cccc3Cl)s2)cc(N2CCN(CCO)CC2)n1 [dasatinib]
- duration of complete molecular remission [2]: ≥ 12 months
- time to disappearance of MRD ([2]; leukemia-specific genomic PCR): ≤ 3 months
- viability at 0.0025 µM [1, 5]: < 10%

Structure (SMILES): CNC(=O)c1cc(Oc2ccc(NC(=O)Nc3cc(C(C)(C)C)nn3-c3ccc4ncccc4c3)c(F)c2)ccn1 [rebastinib]
- effect on viable cell number [1]: effectively reduced the viable cell number

Structure (SMILES): Cc1ccc(NC(=O)c2ccc(CN3CCN(C)CC3)cc2)cc1Nc1nccc(-c2cccnc2)n1 [imatinib mesylate]
- 10-year overall survival rate [3]: 90%

Structure (SMILES): COc1cccc(-c2cc(=O)c3ccccc3o2)c1N [PD98059]
- cell death (Mock Ba/F3 cells): not in the Mock-expressing Ba/F3 cells
- phosphorylation of MAP kinase [4]: markedly reduced
- cell death ([1]; 24 hours, absence of conditioned medium, FIG. 10A): induced cell death
- MEK inhibitor-induced cell death with simultaneous conditioned medium containing IL3 ([1]; presence of conditioned medium, FIG. 10B): partially avoided

Structure (SMILES): Cc1ccc(NC(=O)c2ccc(CN3CCN(C)CC3)cc2)cc1Nc1nccc(-c2cccnc2)n1 [imatinib]
- cell proliferation ([1]; IL-3-independent proliferation, exposure to TKI): significantly inhibited in a concentration-dependent manner
- viability at 0.025 µM [1, 5]: < 10%
